Laboratory results: patent EP4737445A1, “NOVEL SATURATED HETEROCYCLE-SUBSTITUTED HETEROARYL-CARBONOHYDRAZONOYL DICYANIDE COMPOUND AND USE THEREOF” (Korea Institute of Science and Technology, priority 2023, dated 2025)

Tests used:
Tau = target: T1, Tau (Homo sapiens, UniProt P10636); test: Tau aggregation inhibition in Tau-BiFC cell model (Forskolin-induced); type: cell-based
T1 construct: BiFC fluorescent-protein fragments (two complementary halves on two tau copies); expressed in transfected cells
Method: (§1) To screen for new tau aggregation inhibitors, a Tau-BiFC cell model that facilitates observation of tau oligomer formation in living cells was used. Tau-BiFC cells were dispensed into a 384-well plate, and the next day, the compounds prepared according to Examples 1 to 46 were treated at concentrations of 1, 3, and 10 µM, respectively, together with Forskolin (treatment concentration 30 µM), which is a compound that induces tau aggregation by activating the tau phosphorylation enzyme PKA. After 48 hours, nuclei within cells were stained using Hoechst (treatment concentration 2 µg/mL), and BiFC fluorescence intensity was automatically quantified using Operetta (Perkin Elmer) to count the stained nuclei in each well from the entire plate. The group treated only with Forskolin, which induces tau aggregation, was set as the reference point with 100% tau aggregation state, and the effect was confirmed by the formula "BiFC fluorescence intensity by the compounds synthesized according to the Examples of the disclosure/(fluorescence intensity of the control group treated only with Forskolin that induces tau aggregation - fluorescence intensity of the untreated control group) × 100". In addition, the degree of cytotoxicity induced by the newly synthesized compounds was also calculated using the formula "(number of stained nuclei in the compound-treated group/number of stained nuclei in the Forskolin-treated group) × 100", with the group treated only with Forskolin as the reference point at 100% viability. From the treatment results, substances that inhibit intracellular tau aggregation were identified through screening from a series of candidates based on the criteria of 70% or more tau aggregation inhibition and 100% cell viability at a compound treatment concentration of 10 µM.
(§2) To confirm the tau aggregation inhibitory effect according to the concentration of the compounds screened in Experimental Example 1, the screened compounds were treated to Tau-BiFC cells at concentrations of 0.03, 0.1, 0.3, 1, 3, 10, and 30 µM, respectively, together with Forskolin (treatment concentration 30 µM), which is a tau aggregation-inducing substance. After 48 hours, cell images were examined to analyze the tau aggregation reaction and degree of cytotoxicity. The IC50 and toxicity of the compounds were analyzed by nonlinear regression analysis using Prism software (GraphPad). The calculated results for representative compounds are shown in Table 3 below: Tau aggregation inhibitory effect and cell viability of novel compounds.

Tau-BiFC cells = test: Cell viability (stained nuclei count) in Tau-BiFC cells; type: cell-based; settings: @10 µM; Tau-BiFC cell line; Forskolin-only group = 100%
Method: as §1, §2

TDP-43 protein = target: T2, TDP-43 protein (Homo sapiens, UniProt Q13148); test: TDP-43 aggregation inhibition in TDP-43-BiFC cell model (Forskolin-induced); type: cell-based; settings: read-out: TDP-43 protein aggregation inhibitory effect: Aggregation inhibitory effect (%) (@3 uM)
T2 construct: BiFC fluorescent-protein fragments (two complementary halves); expressed in transfected cells
Method: (§3) To screen for new TDP-43 aggregation inhibitors, a TDP-43-BiFC cell model that facilitates observation of TDP-43 aggregate formation in living cells was used. Specifically, TDP-43-BiFC cells were dispensed into a 384-well plate, and the next day, the compounds prepared according to Examples 1 to 46 were treated at concentrations of 3 and 10 µM, respectively, together with Forskolin (treatment concentration 30 µM), which is a compound that induces TDP-43 aggregation by activating the phosphorylation enzyme PKA. After 48 hours, nuclei within cells were stained using Hoechst (treatment concentration 1 µg/mL), and BiFC fluorescence intensity was automatically quantified using Operetta (PerkinElmer) to count the stained nuclei in each well from the entire plate. The group treated only with Forskolin, which induces TDP-43 aggregation, was set as the reference point with 100% TDP-43 aggregation state, and the effect was confirmed by the formula "(BiFC fluorescence intensity by the compounds synthesized according to the Examples of the disclosure - fluorescence intensity of the untreated control group)/(fluorescence intensity of the control group treated only with Forskolin that induces TDP-43 aggregation - fluorescence intensity of the untreated control group) × 100". In addition, the degree of cytotoxicity induced by the newly synthesized compounds was also calculated using the formula "(number of stained nuclei in the compound-treated group/number of stained nuclei in the Forskolin-treated group) × 100", with the group treated only with Forskolin as the reference point at 100% viability. From the treatment results, substances that inhibit intracellular TDP-43 aggregation were identified through screening from a series of candidates based on the criteria of 80% or more TDP-43 aggregation inhibition and 60% cell viability at a compound treatment concentration of 3 µM.
(§4) Furthermore, to confirm the TDP-43 aggregation inhibitory effect according to the concentration of the compounds screened in Experimental Example 3, the screened compounds were treated to […] at concentrations of 0.003, 0.01, 0.03, 0.1, 0.3, 1, 3, and 10 µM, respectively, together with Forskolin (treatment concentration 30 µM), which is a TDP-43 aggregation-inducing substance. After 48 hours, cell images were examined to analyze the TDP-43 aggregation reaction and degree of cytotoxicity. The IC50 and toxicity of the compounds were analyzed by nonlinear regression analysis using Prism software (GraphPad). The calculated results for representative compounds are shown in Table 4 below: TDP-43 protein aggregation inhibitory effect and cell viability of novel compounds.

TDP-43 BiFC cells = test: Cell viability (stained nuclei count) in TDP-43-BiFC cells; type: cell-based; settings: Forskolin-only group = 100%
Method: as §3, §4

[1] = Liver microsomal stability, human; type: in vitro ADME; settings: 1 µM compound; 0.5 mg/mL microsomes; NADPH; 30 minutes at 37°C
Method: (§5) Liver microsomal stability by the compounds prepared according to Examples 1 to 46 was confirmed. Specifically, four types of liver microsomes (human, dog, rat, and mouse each at 0.5 mg/mL), 0.1 M phosphate buffer solution (pH 7.4), and the compounds at 1 µM concentration were added and pre-incubated at 37°C for 5 minutes, and then NADPH generation system solution was added and incubated at 37°C for an additional 30 minutes. Thereafter, an acetonitrile solution containing an internal standard (chloropropamide) was added to terminate the reaction, and after centrifugation for 5 minutes (14,000 rpm, 4°C), the supernatant was injected into an LC-MS/MS system to analyze the substrate drug, thereby evaluating the metabolic stability of 8 compounds.
(§6) The amount of remaining substrate through the reaction was analyzed using a Shimadzu Nexera XR system and TSQ vantage (Thermo). A Kinetex XB-C18 (2.1 × 100 mm, 2.6 µm, particle size; Phenomenex, USA) was used as the HPLC column, and (A) distilled water containing 0.1% formic acid and (B) acetonitrile containing 0.1% formic acid were used as mobile phases. Analyst software (version 1.6.3) and Xcalibur (version 1.6.1) were used for data analysis. The calculated results are shown in Table 5 below: Liver microsomal stability data of novel compounds from […] (human, rat, and mouse).

[2] = Liver microsomal stability, rat; type: in vitro ADME; settings: 1 µM compound; 0.5 mg/mL microsomes; NADPH; 30 minutes at 37°C
Method: as §5, §6

[3] = Liver microsomal stability, mouse; type: in vitro ADME; settings: 1 µM compound; 0.5 mg/mL microsomes; NADPH; 30 minutes at 37°C
Method: as §5, §6

CYP1A2 = target: T3, CYP1A2 (Homo sapiens, UniProt P05177); test: CYP isoenzyme activity inhibition in human liver microsomes, CYP1A2; type: in vitro ADME; settings: 10 µM compound; human liver microsomes 0.25 mg/mL; relative to control without compound
T3 construct: human liver microsomes (0.25 mg/mL); from tissue; host or cells: human liver microsomes
T3 sequence (P05177 1-516): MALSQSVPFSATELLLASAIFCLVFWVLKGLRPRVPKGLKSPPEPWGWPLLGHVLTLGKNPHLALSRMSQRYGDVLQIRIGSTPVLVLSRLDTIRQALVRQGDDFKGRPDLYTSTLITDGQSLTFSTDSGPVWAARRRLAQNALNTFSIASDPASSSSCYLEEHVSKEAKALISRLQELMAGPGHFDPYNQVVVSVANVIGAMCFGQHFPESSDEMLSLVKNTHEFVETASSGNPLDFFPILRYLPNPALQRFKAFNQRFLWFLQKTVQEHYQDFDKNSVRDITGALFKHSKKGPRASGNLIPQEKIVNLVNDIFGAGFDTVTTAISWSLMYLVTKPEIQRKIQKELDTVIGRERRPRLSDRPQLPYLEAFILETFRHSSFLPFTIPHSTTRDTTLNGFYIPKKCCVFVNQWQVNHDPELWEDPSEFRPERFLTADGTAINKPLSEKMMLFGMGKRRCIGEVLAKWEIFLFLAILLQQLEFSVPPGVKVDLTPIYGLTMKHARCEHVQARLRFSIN
Method: (§7) The CYP isoenzyme activity inhibitory effect by the compounds prepared according to Examples 1 to 46 was confirmed. Specifically, human liver microsomes (0.25 mg/mL), 0.1 M phosphate buffer solution (pH 7.4), a substrate drug cocktail of five drug metabolizing enzymes (Phenacetin 50 µM, Diclofenac 10 µM, S-mephenytoin 100 µM, Dextromethorphan 5 µM, and Midazolam 2.5 µM), and the compounds were added at concentrations of 0 or 10 µM, respectively, and pre-incubated at 37°C for 5 minutes, and then NADPH generation system solution was added and incubated at 37°C for an additional 15 minutes. Thereafter, an acetonitrile solution containing an internal standard (Terfenadine) was added to terminate the reaction, and after centrifugation for 5 minutes (14,000 rpm, 4°C), the supernatant was injected into an LC-MS/MS system to simultaneously analyze the metabolites of the substrate drugs, thereby evaluating the drug metabolizing enzyme inhibitory activity.
(§8) The metabolites of each CYP isoenzyme marker drug generated through the reaction were analyzed using a Shimadzu Nexera XR system and TSQ vantage (Thermo). A Kinetex C18 (2.1 × 100 mm, 2.6 µm, particle size; Phenomenex, USA) was used as the HPLC column, and (A) distilled water containing 0.1% formic acid and (B) acetonitrile containing 0.1% formic acid were used as mobile phases, and a gradient program as shown in Table 6 below was applied.
(§9) The generated metabolites were quantified using MRM (Multiple Reaction Monitoring) quantitative mode, and Xcalibur (version 1.6.1) was used for data analysis. To show the CYP isoenzyme activity inhibitory effect of the novel compounds prepared according to the Examples of the disclosure, the % activity of CYP isoenzymes relative to the control group without compound addition is shown in Table 6 below. Additionally, to confirm the difference in effect according to substituents, Comparative Compounds 1 and 5, which are two compounds that share a similar parent nucleus structure with Compounds 1 to 46 of the disclosure while Cy is substituted with aromatic heteroaryl instead of saturated heterocyclyl, were selected as comparative compounds and their activities are shown together.

CYP2C9 = target: T4, CYP2C9 (Homo sapiens, UniProt P11712); test: CYP isoenzyme activity inhibition in human liver microsomes, CYP2C9; type: in vitro ADME; settings: 10 µM compound; human liver microsomes 0.25 mg/mL; relative to control without compound
T4 construct: human liver microsomes (0.25 mg/mL); from tissue; host or cells: human liver microsomes
Method: as §7, §8, §9

CYP2C19 = target: T5, CYP2C19 (Homo sapiens, UniProt P33261); test: CYP isoenzyme activity inhibition in human liver microsomes, CYP2C19; type: in vitro ADME; settings: 10 µM compound; human liver microsomes 0.25 mg/mL; relative to control without compound
T5 construct: human liver microsomes (0.25 mg/mL); from tissue; host or cells: human liver microsomes
Method: as §7, §8, §9

CYP2D6 = target: T6, CYP2D6 (Homo sapiens, UniProt P10635); test: CYP isoenzyme activity inhibition in human liver microsomes, CYP2D6; type: in vitro ADME; settings: 10 µM compound; human liver microsomes 0.25 mg/mL; relative to control without compound
T6 construct: human liver microsomes (0.25 mg/mL); from tissue; host or cells: human liver microsomes
Method: as §7, §8, §9

CYP3A4 = target: T7, CYP3A4 (Homo sapiens, UniProt P08684); test: CYP isoenzyme activity inhibition in human liver microsomes, CYP3A4; type: in vitro ADME; settings: 10 µM compound; human liver microsomes 0.25 mg/mL; relative to control without compound
T7 construct: human liver microsomes (0.25 mg/mL); from tissue; host or cells: human liver microsomes
Method: as §7, §8, §9

T7 sequence (P08684 whole entry): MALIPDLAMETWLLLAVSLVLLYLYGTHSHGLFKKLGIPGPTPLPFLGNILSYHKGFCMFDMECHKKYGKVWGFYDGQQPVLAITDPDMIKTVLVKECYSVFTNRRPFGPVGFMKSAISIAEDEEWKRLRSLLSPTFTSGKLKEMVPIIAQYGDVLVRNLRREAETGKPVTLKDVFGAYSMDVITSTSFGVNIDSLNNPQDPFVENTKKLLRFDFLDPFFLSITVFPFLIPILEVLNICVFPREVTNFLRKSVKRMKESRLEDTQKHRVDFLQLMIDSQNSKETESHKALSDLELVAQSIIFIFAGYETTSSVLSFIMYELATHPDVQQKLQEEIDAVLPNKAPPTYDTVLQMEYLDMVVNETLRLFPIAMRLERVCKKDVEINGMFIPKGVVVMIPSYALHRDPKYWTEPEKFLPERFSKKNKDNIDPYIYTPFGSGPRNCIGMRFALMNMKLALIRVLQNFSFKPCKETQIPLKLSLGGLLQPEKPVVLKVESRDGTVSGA
T5 sequence (P33261 whole entry): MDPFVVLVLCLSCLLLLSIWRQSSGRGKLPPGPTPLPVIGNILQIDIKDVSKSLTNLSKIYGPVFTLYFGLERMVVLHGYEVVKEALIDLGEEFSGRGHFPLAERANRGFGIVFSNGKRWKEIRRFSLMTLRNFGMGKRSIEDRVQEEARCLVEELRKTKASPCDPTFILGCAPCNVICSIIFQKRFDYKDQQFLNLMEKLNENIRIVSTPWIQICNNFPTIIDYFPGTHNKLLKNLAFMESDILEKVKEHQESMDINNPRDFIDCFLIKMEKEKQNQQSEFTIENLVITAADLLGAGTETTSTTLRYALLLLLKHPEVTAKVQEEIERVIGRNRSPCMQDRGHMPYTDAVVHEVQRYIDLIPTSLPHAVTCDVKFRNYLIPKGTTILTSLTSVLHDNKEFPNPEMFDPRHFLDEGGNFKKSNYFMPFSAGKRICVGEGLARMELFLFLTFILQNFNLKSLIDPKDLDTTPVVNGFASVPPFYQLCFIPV
T2 sequence (Q13148 whole entry, the tested form may be a part): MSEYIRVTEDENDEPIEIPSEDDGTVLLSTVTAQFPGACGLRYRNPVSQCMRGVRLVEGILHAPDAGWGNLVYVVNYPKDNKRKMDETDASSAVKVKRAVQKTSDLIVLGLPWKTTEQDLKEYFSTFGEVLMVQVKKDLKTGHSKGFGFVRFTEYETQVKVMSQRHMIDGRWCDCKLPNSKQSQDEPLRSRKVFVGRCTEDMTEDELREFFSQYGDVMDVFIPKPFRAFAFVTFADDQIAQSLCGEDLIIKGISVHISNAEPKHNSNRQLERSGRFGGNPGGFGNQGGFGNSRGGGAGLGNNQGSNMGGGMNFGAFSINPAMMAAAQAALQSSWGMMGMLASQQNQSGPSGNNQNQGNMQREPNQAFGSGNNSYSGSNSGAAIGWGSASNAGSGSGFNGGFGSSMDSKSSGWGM
T4 sequence (P11712 whole entry): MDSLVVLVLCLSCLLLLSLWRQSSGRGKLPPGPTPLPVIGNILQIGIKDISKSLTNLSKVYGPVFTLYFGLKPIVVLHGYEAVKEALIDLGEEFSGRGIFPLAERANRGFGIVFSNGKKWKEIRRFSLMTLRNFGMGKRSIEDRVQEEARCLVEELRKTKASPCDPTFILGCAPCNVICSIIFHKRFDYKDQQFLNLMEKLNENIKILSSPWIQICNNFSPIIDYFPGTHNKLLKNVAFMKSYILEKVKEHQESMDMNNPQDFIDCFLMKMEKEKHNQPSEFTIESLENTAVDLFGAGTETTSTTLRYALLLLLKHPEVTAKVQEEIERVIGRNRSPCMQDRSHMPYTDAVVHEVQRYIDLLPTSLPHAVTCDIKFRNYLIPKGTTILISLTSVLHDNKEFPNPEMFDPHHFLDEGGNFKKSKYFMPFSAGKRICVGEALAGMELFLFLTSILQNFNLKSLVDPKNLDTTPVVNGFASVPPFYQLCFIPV
T1 sequence (P10636 1-441 isoform P10636-8): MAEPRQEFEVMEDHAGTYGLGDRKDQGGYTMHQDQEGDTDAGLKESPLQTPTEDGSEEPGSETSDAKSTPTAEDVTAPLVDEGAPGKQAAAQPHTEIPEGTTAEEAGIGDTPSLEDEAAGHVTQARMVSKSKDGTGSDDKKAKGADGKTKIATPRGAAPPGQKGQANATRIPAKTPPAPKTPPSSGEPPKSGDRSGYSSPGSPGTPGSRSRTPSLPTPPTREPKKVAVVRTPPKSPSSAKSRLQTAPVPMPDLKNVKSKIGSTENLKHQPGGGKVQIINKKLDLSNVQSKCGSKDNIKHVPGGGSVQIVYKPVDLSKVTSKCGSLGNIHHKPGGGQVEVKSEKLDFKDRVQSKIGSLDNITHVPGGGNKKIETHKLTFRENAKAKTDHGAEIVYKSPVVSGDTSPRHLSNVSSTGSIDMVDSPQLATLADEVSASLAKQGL
T6 sequence (P10635 whole entry): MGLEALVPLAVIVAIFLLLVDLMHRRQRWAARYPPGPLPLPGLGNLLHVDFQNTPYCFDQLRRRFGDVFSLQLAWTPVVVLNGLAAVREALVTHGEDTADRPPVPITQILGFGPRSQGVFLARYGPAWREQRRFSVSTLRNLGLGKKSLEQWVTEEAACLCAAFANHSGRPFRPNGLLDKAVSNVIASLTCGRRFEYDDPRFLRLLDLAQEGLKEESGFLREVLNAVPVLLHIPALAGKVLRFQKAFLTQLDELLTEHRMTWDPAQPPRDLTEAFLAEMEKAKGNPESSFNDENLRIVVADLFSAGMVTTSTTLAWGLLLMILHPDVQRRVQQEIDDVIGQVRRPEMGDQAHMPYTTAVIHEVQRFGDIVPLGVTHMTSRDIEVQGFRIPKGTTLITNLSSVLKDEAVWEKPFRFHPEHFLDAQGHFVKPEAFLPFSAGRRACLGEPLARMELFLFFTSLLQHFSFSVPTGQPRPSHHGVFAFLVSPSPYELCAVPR

SMILES	IC50 (Tau)	Cell viability (% @10µM) (Tau-BiFC cells)	inhibition at 3 µM (TDP-43 protein)	Cell viability (%) (@ 3 uM) (TDP-43 BiFC cells)	Human microsomes (% remaining) [1]	Rat microsomes (% remaining) [2]	Mouse microsomes (% remaining) [3]	CYP1A2 (% activity) (CYP1A2)	CYP2C9 (% activity) (CYP2C9)	CYP2C19 (% activity) (CYP2C19)	CYP2D6 (% activity) (CYP2D6)	CYP3A4 (% activity) (CYP3A4)
Cc1nc2ccc(NN=C(C#N)C#N)cc2s1 [Comparative compound 1, N-(2-methylbenzo[d]thiazol-6-yl)carbonohydrazonoyl dicyanide, reference compound]	500 nM	100%	72.9%	79.0%	37.0 % remaining	1.2 % remaining	1.2 % remaining	–	–	–	–	–
Cc1ccc(-c2nc3ccc(NN=C(C#N)C#N)cc3s2)cn1 [Comparative compound 6, N-(2-(6-methylpyridin-3-yl)benzo[d]thiazol-6-yl) carbonohydrazonoyl dicyanide, reference compound]	–	–	69.5%	60.8%	84.7 % remaining	83.9 % remaining	>100 % remaining	80.2 % activity	32.0 % activity	81.2 % activity	91.8 % activity	81.7 % activity
N#CC(C#N)=NNc1ccc2nc(N3CCOCC3)[nH]c2c1 [Compound 7, (2-morpholino-1H-benzo[d]imidazol-6-yl)carbonohydrazonoyl dicyanide]	64 nM	100%	–	–	–	–	–	57.6 % activity	67.8 % activity	95.1 % activity	> 100 % activity	83.1 % activity
